Experimental data reported in PMC7540184 (Journal of natural products, 2020).

Columns and labels:
Assay type in all cases: cell-based, human
MDA-MB-231 cells = experiment: Intracellular Ca2+ imaging; details: MDA-MB-231, 150 nM
[1] = system: BT-549 cells with NCX1 knockout; experiment: Sensitivity of BT-549 cells after CRISPR knockout of NCX1; details: inducible Cas9, three sgRNAs targeted to NCX1
BT-549 cells = experiment: Intracellular Ca2+ imaging; details: BT-549, 150 nM and 500 nM, after 3 h, sustained at 6 h

C[C@@H]1C[C@H](O)[C@]2(O)O[C@@H]3C[C@@]4(C=O)[C@@H](CC[C@@H]5[C@@H]4CC[C@]4(C)[C@@H](C6=CC(=O)OC6)CC[C@]54O)C[C@H]3O[C@@H]2O1 [calotropin (9), Calotropin]
change in Ca2+ fluorescence relative to BT-549 cells (MDA-MB-231 cells): significantly less
effect of removing NCX1 on sensitivity of BT-549 cells [1]: did not reduce the sensitivity
mean intracellular Ca2+ fluorescence compared to vehicle-treated cells (BT-549 cells): significantly increased
